From patent US20100286076A1, “ECTOPARASITICIDAL METHODS AND FORMULATIONS” (priority 2009, published 2010)

Tested on: Ctenocephalides felis
Assay: Pulse vs. single dose administration per os to dogs, flea infestation comb counts
Type: in vivo
Protocol: Pulse vs. Single dose administration per os to dogs/Ctenocephalides felis Another dog study was undertaken to evaluate the effect on flea infestation of 1) oral administration of a single point dose of 60 mg/kg; 2) oral administration of a pulsed dosing scheme of 20 mg/kg TID every 2 hours for one day; 3) oral administration of a pulsed dosing scheme of 20 mg/kg TID every 4 hours for one day; and 4) post-treatment plasma concentration of spinetoram.
Four treatment groups of 8 dogs each (4 male: 4 female) were dosed spinetoram as follows:
Treatment Group 1: 60 mg/kg, single dose
Treatment Group 2: 60 mg/kg, (20 mg/kg every 2 hours, three times)
Treatment Group 3: 60 mg/kg, (20 mg/kg every 4 hours, three times)
Treatment Group 4: 0 mg/kg, (negative control)
The dogs were housed individually in concrete-floored chain-link kennels both inside and outside. During the study period the dogs were fed a dry dog chow, except for two days prior to and the day of treatment (day 0) when they received wet canned food. The dogs had ad libitum access to water.
The treated dogs received one or more gelatin capsules containing technical active spinetoram powder by mouth, with treatment group 4 receiving placebo. Each dog was experimentally infested with about 100 fleas on test days—1,5,12,19, 28, 35, 42, 49, and 56. Knockdown assessments were conducted 24 hours after dosing, with residual efficacy evaluated subsequently at 48 hours after each subsequent infestation. The day 1 comb count served to determine the initial/knockdown efficacy, approximately 24 hours after the 60 mg/kg dose, or the first of the pulse dose. Blood samples were drawn to determine concentration of spinetoram in plasma.

Spinetoram
(91.7) percent: geometric mean percent reduction in live adult flea counts compared to the untreated control group (oral 20 mg/kg TID@2 h, Day 86)
(93.7) percent: geometric mean percent reduction in live adult flea counts compared to the untreated control group (oral 20 mg/kg TID@4 h, Day 93) | geometric mean percent reduction in live adult flea counts compared to the untreated control group (oral 60 mg/kg SID, Day 100)
6.4: geometric mean live adult flea count (oral 20 mg/kg TID@2 h, Day 86)
(96.2) percent: geometric mean percent reduction in live adult flea counts compared to the untreated control group (oral 60 mg/kg SID, Day 107)
2.5: geometric mean live adult flea count (oral 20 mg/kg TID@2 h, Day 93)
0.2: geometric mean live adult flea count (oral 20 mg/kg TID@4 h, Day 30) | geometric mean live adult flea count (oral 20 mg/kg TID@4 h, Day 51) | geometric mean live adult flea count (oral 20 mg/kg TID@4 h, Day 72) | geometric mean live adult flea count (oral 60 mg/kg SID, Day 58)
(100) percent: geometric mean percent reduction in live adult flea counts compared to the untreated control group (oral 20 mg/kg TID@2 h, Day 1) | geometric mean percent reduction in live adult flea counts compared to the untreated control group (oral 20 mg/kg TID@2 h, Day 7) | geometric mean percent reduction in live adult flea counts compared to the untreated control group (oral 20 mg/kg TID@2 h, Day 14) | geometric mean percent reduction in live adult flea counts compared to the untreated control group (oral 20 mg/kg TID@2 h, Day 21) | geometric mean percent reduction in live adult flea counts compared to the untreated control group (oral 20 mg/kg TID@2 h, Day 30) | geometric mean percent reduction in live adult flea counts compared to the untreated control group (oral 20 mg/kg TID@2 h, Day 37) | geometric mean percent reduction in live adult flea counts compared to the untreated control group (oral 20 mg/kg TID@2 h, Day 44) | geometric mean percent reduction in live adult flea counts compared to the untreated control group (oral 20 mg/kg TID@2 h, Day 51) | geometric mean percent reduction in live adult flea counts compared to the untreated control group (oral 20 mg/kg TID@2 h, Day 58) | geometric mean percent reduction in live adult flea counts compared to the untreated control group (oral 20 mg/kg TID@2 h, Day 72) | geometric mean percent reduction in live adult flea counts compared to the untreated control group (oral 20 mg/kg TID@4 h, Day 1) | geometric mean percent reduction in live adult flea counts compared to the untreated control group (oral 20 mg/kg TID@4 h, Day 7) | geometric mean percent reduction in live adult flea counts compared to the untreated control group (oral 20 mg/kg TID@4 h, Day 14) | geometric mean percent reduction in live adult flea counts compared to the untreated control group (oral 20 mg/kg TID@4 h, Day 21) | geometric mean percent reduction in live adult flea counts compared to the untreated control group (oral 20 mg/kg TID@4 h, Day 37) | geometric mean percent reduction in live adult flea counts compared to the untreated control group (oral 20 mg/kg TID@4 h, Day 44) | geometric mean percent reduction in live adult flea counts compared to the untreated control group (oral 20 mg/kg TID@4 h, Day 58) | geometric mean percent reduction in live adult flea counts compared to the untreated control group (oral 60 mg/kg SID, Day 1) | geometric mean percent reduction in live adult flea counts compared to the untreated control group (oral 60 mg/kg SID, Day 7) | geometric mean percent reduction in live adult flea counts compared to the untreated control group (oral 60 mg/kg SID, Day 21) | geometric mean percent reduction in live adult flea counts compared to the untreated control group (oral 60 mg/kg SID, Day 30) | geometric mean percent reduction in live adult flea counts compared to the untreated control group (oral 60 mg/kg SID, Day 37) | geometric mean percent reduction in live adult flea counts compared to the untreated control group (oral 60 mg/kg SID, Day 44) | geometric mean percent reduction in live adult flea counts compared to the untreated control group (oral 60 mg/kg SID, Day 51) | geometric mean percent reduction in live adult flea counts compared to the untreated control group (oral 60 mg/kg SID, Day 72)
5.2: geometric mean live adult flea count (oral 60 mg/kg SID, Day 100)
3.2: geometric mean live adult flea count (oral 60 mg/kg SID, Day 107)
0.0: geometric mean live adult flea count (oral 20 mg/kg TID@2 h, Day 1) | geometric mean live adult flea count (oral 20 mg/kg TID@2 h, Day 7) | geometric mean live adult flea count (oral 20 mg/kg TID@2 h, Day 14) | geometric mean live adult flea count (oral 20 mg/kg TID@2 h, Day 21) | geometric mean live adult flea count (oral 20 mg/kg TID@2 h, Day 30) | geometric mean live adult flea count (oral 20 mg/kg TID@2 h, Day 37) | geometric mean live adult flea count (oral 20 mg/kg TID@2 h, Day 44) | geometric mean live adult flea count (oral 20 mg/kg TID@2 h, Day 51) | geometric mean live adult flea count (oral 20 mg/kg TID@2 h, Day 58) | geometric mean live adult flea count (oral 20 mg/kg TID@2 h, Day 72) | geometric mean live adult flea count (oral 20 mg/kg TID@4 h, Day 1) | geometric mean live adult flea count (oral 20 mg/kg TID@4 h, Day 7) | geometric mean live adult flea count (oral 20 mg/kg TID@4 h, Day 14) | geometric mean live adult flea count (oral 20 mg/kg TID@4 h, Day 21) | geometric mean live adult flea count (oral 20 mg/kg TID@4 h, Day 37) | geometric mean live adult flea count (oral 20 mg/kg TID@4 h, Day 44) | geometric mean live adult flea count (oral 20 mg/kg TID@4 h, Day 58) | geometric mean live adult flea count (oral 60 mg/kg SID, Day 1) | geometric mean live adult flea count (oral 60 mg/kg SID, Day 7) | geometric mean live adult flea count (oral 60 mg/kg SID, Day 14) | geometric mean live adult flea count (oral 60 mg/kg SID, Day 21) | geometric mean live adult flea count (oral 60 mg/kg SID, Day 30) | geometric mean live adult flea count (oral 60 mg/kg SID, Day 37) | geometric mean live adult flea count (oral 60 mg/kg SID, Day 44) | geometric mean live adult flea count (oral 60 mg/kg SID, Day 51) | geometric mean live adult flea count (oral 60 mg/kg SID, Day 72)
11.4: geometric mean live adult flea count (oral 20 mg/kg TID@4 h, Day 100)
(88.0) percent: geometric mean percent reduction in live adult flea counts compared to the untreated control group (oral 20 mg/kg TID@2 h, Day 100)
(94.1) percent: geometric mean percent reduction in live adult flea counts compared to the untreated control group (oral 20 mg/kg TID@2 h, Day 107)
100) percent: geometric mean percent reduction in live adult flea counts compared to the untreated control group (oral 60 mg/kg SID, Day 14)
(97.5) percent: geometric mean percent reduction in live adult flea counts compared to the untreated control group (oral 60 mg/kg SID, Day 93)
10.0: geometric mean live adult flea count (oral 20 mg/kg TID@2 h, Day 100)
(93.8) percent: geometric mean percent reduction in live adult flea counts compared to the untreated control group (oral 20 mg/kg TID@4 h, Day 86)
4.7: geometric mean live adult flea count (oral 20 mg/kg TID@4 h, Day 86)
(97.7) percent: geometric mean percent reduction in live adult flea counts compared to the untreated control group (oral 60 mg/kg SID, Day 86)
(96.7) percent: geometric mean percent reduction in live adult flea counts compared to the untreated control group (oral 20 mg/kg TID@2 h, Day 93)
(99.7) percent: geometric mean percent reduction in live adult flea counts compared to the untreated control group (oral 20 mg/kg TID@4 h, Day 51)
8.5: geometric mean live adult flea count (oral 20 mg/kg TID@4 h, Day 107)
1.9: geometric mean live adult flea count (oral 60 mg/kg SID, Day 93)
(89.6) percent: geometric mean percent reduction in live adult flea counts compared to the untreated control group (oral 20 mg/kg TID@4 h, Day 107)
4.8: geometric mean live adult flea count (oral 20 mg/kg TID@2 h, Day 107) | geometric mean live adult flea count (oral 20 mg/kg TID@4 h, Day 93)
(86.3) percent: geometric mean percent reduction in live adult flea counts compared to the untreated control group (oral 20 mg/kg TID@4 h, Day 100)
1.8: geometric mean live adult flea count (oral 60 mg/kg SID, Day 86)
(99.8) percent: geometric mean percent reduction in live adult flea counts compared to the untreated control group (oral 20 mg/kg TID@4 h, Day 30) | geometric mean percent reduction in live adult flea counts compared to the untreated control group (oral 20 mg/kg TID@4 h, Day 72) | geometric mean percent reduction in live adult flea counts compared to the untreated control group (oral 60 mg/kg SID, Day 58)
